The record followed here is ChEMBL document CHEMBL1131086, “Synthesis and biological activity of conformationally restricted analogues of milnacipran: (1S, 2R)-1-phenyl-2-[(R)-1-amino-2-propynyl]-N,N- diethylcyclopropanecarboxamide is a novel class of NMDA receptor channel blocker” (J Med Chem, 1998).

Assay [1] has as its target Sodium-dependent serotonin transporter (Rattus norvegicus, UniProt P31652). The experiment in a line: Inhibition of Serotonin transporter in cerebral cortical synaptic membrane of rats using [3H]paroxetine.
The target in a further assay is Glutamate NMDA receptor. Set-up: species or system Rattus norvegicus.
Assay [2] addresses T1, 5-hydroxytryptamine receptor 2C (Rattus norvegicus) (UniProt P08909).
T1 sequence (whole entry): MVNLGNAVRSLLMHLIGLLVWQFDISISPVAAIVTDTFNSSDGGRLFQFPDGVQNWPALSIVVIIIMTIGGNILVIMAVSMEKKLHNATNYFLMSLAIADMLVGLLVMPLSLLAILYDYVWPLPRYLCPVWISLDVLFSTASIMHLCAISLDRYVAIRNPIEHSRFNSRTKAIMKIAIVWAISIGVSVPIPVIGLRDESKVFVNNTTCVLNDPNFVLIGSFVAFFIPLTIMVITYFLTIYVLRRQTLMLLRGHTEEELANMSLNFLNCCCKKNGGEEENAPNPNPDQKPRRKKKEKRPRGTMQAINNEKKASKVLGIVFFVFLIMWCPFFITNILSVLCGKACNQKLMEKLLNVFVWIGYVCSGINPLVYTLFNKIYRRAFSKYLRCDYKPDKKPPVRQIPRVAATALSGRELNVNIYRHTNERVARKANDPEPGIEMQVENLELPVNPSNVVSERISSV
Kind of assay: Compound tested for relative response using 0.1 uM 5-HT as agonist against 5-hydroxytryptamine 2C receptor. Type of assay: functional.

Assay [3] concerns the target GABA-A receptor; anion channel (Rattus norvegicus) (UniProt O09028+P15431+P18506+P18508+P19969+P20236+P23574+P23576+P28471+P28473+P30191+P62813+P63079+P63138+Q91ZM7+Q9ES14). The experiment in a line: Compound tested for relative response using 30 uM GABA as agonist against Gamma-aminobutyric acid A receptor. In kind it is functional.
The target in assay [4] is T2, Muscarinic acetylcholine receptor M1 (Rattus norvegicus) (UniProt P08482).
T2 sequence (whole entry): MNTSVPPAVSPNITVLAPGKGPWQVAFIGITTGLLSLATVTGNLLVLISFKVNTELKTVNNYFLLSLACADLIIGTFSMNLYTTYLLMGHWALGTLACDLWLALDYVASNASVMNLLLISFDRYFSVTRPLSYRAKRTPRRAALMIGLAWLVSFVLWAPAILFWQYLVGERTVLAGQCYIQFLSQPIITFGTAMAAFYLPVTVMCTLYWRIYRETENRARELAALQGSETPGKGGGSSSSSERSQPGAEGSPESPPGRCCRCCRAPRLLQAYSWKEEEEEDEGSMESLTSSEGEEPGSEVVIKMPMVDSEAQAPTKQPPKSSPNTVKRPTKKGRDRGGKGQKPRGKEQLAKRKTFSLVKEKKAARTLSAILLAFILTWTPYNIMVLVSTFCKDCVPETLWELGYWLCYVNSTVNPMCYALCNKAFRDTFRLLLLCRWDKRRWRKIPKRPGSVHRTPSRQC
Kind of assay: Compound tested for relative response using 1 uM ACh as agonist against AChM1 receptor. Type of assay: functional.

Assay [5] has as its target Glutamate receptor ionotropic, kainate (Rattus norvegicus) (UniProt P22756+Q01812+P42260+P42264+Q63273). Kind of assay: Compound tested for relative response using 30 uM kainate as agonist against Ionotropic glutamate receptor kainate. In kind it is functional.
The target of assay [6] is Glutamate receptor ionotropic, AMPA (Rattus norvegicus) (UniProt P19491+P19492+P19493+P19490). The experiment in a line: Compound tested for relative response using 10 uM AMPA as agonist against Ionotropic glutamate receptor AMPA. Type of assay: functional.
Assay [7] has as its target Glutamate receptor ionotropic, NMDA 1 (Rattus norvegicus) (UniProt P35439). The experiment in a line: Compound tested for relative response using 30 uM NMDA+10 uM glycine as agonist against N-methyl-D-aspartate glutamate receptor 1. Type of assay: functional.

Sequence of Sodium-dependent serotonin transporter (P31652 whole entry): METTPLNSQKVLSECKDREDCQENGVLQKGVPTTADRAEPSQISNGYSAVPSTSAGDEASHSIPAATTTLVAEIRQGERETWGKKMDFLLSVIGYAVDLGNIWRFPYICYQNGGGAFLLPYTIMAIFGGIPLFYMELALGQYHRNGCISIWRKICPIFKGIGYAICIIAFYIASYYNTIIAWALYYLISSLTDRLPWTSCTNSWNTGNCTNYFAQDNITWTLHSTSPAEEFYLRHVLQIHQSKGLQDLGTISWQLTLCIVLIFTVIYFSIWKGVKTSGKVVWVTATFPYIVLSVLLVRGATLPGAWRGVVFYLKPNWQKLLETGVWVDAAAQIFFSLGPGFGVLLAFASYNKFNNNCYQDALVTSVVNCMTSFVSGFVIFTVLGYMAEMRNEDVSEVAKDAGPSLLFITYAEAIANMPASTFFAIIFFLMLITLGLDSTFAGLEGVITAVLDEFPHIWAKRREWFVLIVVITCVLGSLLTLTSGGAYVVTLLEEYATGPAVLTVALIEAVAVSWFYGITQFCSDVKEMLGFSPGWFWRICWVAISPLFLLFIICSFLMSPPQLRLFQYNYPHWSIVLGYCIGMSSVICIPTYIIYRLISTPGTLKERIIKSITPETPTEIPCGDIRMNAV
Description for Glutamate NMDA receptor: Inhibition of [3H]MK-801 binding to N-methyl-D-aspartate glutamate receptor of rat cerebral cortical synaptic membrane

In general, Ki refers to a dissociation constant, usually derived from enzyme kinetics or from competition with a known ligand. Read a low Ki as tighter binding. Broadly, the IC50 is the midpoint of a concentration-inhibition curve. For `CCN(CC)C(=O)[C@@]1(c2ccccc2)C[C@H]1C(N)C#N` (stereo in doubt; 2e), in assay [1], the inhibition constant (Ki) is greater than 100 µM. The IC50 at Glutamate NMDA receptor is 96 µM.
At Glutamate NMDA receptor, `CCN(CC)C(=O)[C@@]1(c2ccccc2)C[C@H]1C(N)C#N` (stereo in doubt; 3e) returned an IC50 greater than 100 µM.
Molecule `CCN(CC)C(=O)[C@@]1(c2ccccc2)C[C@H]1C(N)C(=O)O` (some centres undefined) came in with an inhibition constant (Ki) in assay [1] greater than 100 µM. For the same molecule, the IC50 against Glutamate NMDA receptor was greater than 100 µM.
On to `CCN(CC)C(=O)[C@@]1(c2ccccc2)C[C@H]1C(N)C(=O)OC` (some centres undefined), for which the affinity in assay [1], expressed as Ki, was 25 µM. Also, the IC50 against Glutamate NMDA receptor was greater than 100 µM.
On to `C#CC(N)[C@@H]1C[C@@]1(C(=O)N(CC)CC)c1ccccc1` (stereo in doubt; 2d) [listing 1 of 2 here], for which the Relative response was 100% in assay [2]; 99.6% in assay [3]; 102% in assay [4]; 96.9% in assay [5]; 100% in assay [6]; 32.1% in assay [7].
As for `CCN(CC)C(=O)[C@@]1(c2ccccc2)C[C@H]1C(N)C(N)=O` (some centres undefined), the inhibition constant Ki in assay [1] was greater than 100 µM. Moreover, half-maximal inhibition on Glutamate NMDA receptor (IC50) required 27 µM.
For `C#CC(N)[C@@H]1C[C@@]1(C(=O)N(CC)CC)c1ccccc1` (stereo in doubt; 3d) the same measures were 15 µM and 16 µM.
In assay [1], `C#CC(N)[C@@H]1C[C@@]1(C(=O)N(CC)CC)c1ccccc1` (stereo in doubt; 2d) [listing 2 of 2 here] had a Ki of 0.19 µM. The molecule further registered an IC50 against Glutamate NMDA receptor of 0.29 µM.
